This note sets out measurements from patent US7649016B2, “Antitumor medicine” (Nihon Starch Co., Ltd., priority 2003, dated 2010).

The subject of assay [1] is B16 melanoma cells in C57 BL/6 mice. Description: Cancerous peritonitis model, survival of mice with B16 melanoma cells in the abdominal cavity. The format is in vivo, mouse. Here is the method:
B16 melanoma cells (5×10^6 cells) were disseminated in the abdominal cavities of C57 BL/6 mice, PBS (phosphate buffer) and an ascopyrone P solution were then administered (dosage: 200 mg/kg) into the abdominal cavities every day from the 15th day, and the survival rates were examined (cancerous peritonitis model). It was confirmed that, in this experimental system, when the B16 melanoma cells were disseminated in the abdominal cavities of the mice in advance, the mice died from the 14th day or later when nothing or PBS was applied. The results of examining the life extending effect of ascopyrone P on terminal cancer models by use of the present experimental system are shown in FIG. 8. […] This indicates the antitumor effect in vivo of ascopyrone P.
As in Example 1, B16 melanoma cells (5×10^6 cells) were disseminated in the abdominal cavities of C57 BL/6 mice, and PBS and 1,5-D-anhydrofructose were administered (dosage: 200 mg/kg) into the abdominal cavities every day from the 2nd day. The average survival days after the tumor cells were disseminated were 19 days for those given 1,5-D-anhydrofructose and 14 days for those given PBS as controls.

Assay [2] has as its system integrin (THP-1 cell adhesion). In words: Number of adhered cells after phorbol ester (PMA) stimulation, function of integrin. The format is cell-based, human. Particulars: THP-1, 12.3 mM, one hour. Here is the method:
A 1,5-D-anhydrofructose solution (prepared by dissolving 1,5-D-anhydrofructose in DMSO) was added to the THP-1 cell culture medium, and the resulting medium was then stimulated by phorbol ester (PMA; phorbol myristate acetate). After the medium was cultured at 37° C. and a CO2 concentration of 5% for one hour, adhered cells were stained with a Giemsa staining method.
It is known that when leukemia cell lines are stimulated by phorbol ester (PMA), activation of adhesion molecule integrin is observed, and as a result, production of active oxygen, enhancement of cell adhesion and cell infiltration are induced as cell phenomena. Thus, THP-1 cell lines were cultured in the presence of 1,5-D-anhydrofructose, and the function of integrin was evaluated by use of the number of adherent cells after stimulation of the lines by phorbol ester as an index.

Assay [3] has as its system HeLa (human cervical cancer cells). In words: Percentage of dead cells and cell cycle by PI staining/FACS. In kind it is cell-based. Particulars: 1.4 mM. Here is the method: (§1) Adhesion cancer cell lines C57 BL/6 mouse melanoma cell lines (B16 melanoma), human lung adenocarcinoma cell lines (A549), human keratinocyte derived tumor-like cell lines (HaCaT) and human cervical cancer cell lines (Hela) were cultured at 37° C. and a CO2 concentration of 5% in DMEM media having 10% FCS (fetal calf serum) and 2% penicillin/streptomycin added thereto. Floating tumor cells THP-1 (promyelocytic leukemia cell lines) were cultured at 37° C. and a CO2 concentration of 5% in an RPMI 1640 medium containing 10% FCS and 2% penicillin/streptomycin.
(§2) The cell culture media were stimulated by ascopyrone P solutions (prepared by dissolving ascopyrone P in dimethyl sulfoxide (DMSO)) of various concentrations and cultured for a predetermined time. Thereafter, cells were collected in a floating state by use of trypsin. Then, the cells were fixed by 70% ethanol at 4° C. for 30 minutes and then stained with a 50 μg/ml propidium iodine (PI) solution. After 30 minutes, DNA histograms were prepared by use of an FACS to examine cell death percentages and cell cycles.
(§3) In the examination, in addition to the B16 melanoma cells, 4 types of human cancer cell lines (THP-1: promyelocytic leukemia, HeLa: cervical cancer, A549: alveolar cell carcinoma, HaCaT: cutaneous cancer model cells) were examined for the proportion of dead cells induced by stimulation of ascopyrone P. To the cancer cell culture solutions, ascopyrone P was added to 1.4 mM, and the percentages of dead cells after 48 hours were determined.
Therefore, when ascopyrone P is given to a living body as an antitumor medicine, it is expected that it specifically exerts a cell killing effect only on tumor cells without affecting normal cells most of which are conceived in the G0/1 period of the cell cycle.

Assay [4] concerns A549 (human alveolar cell carcinoma). In words: Percentage of dead cells by PI staining/FACS; DNA fragmentation. The format is cell-based. Here is the method:
as §1
(§4) The cell culture media were stimulated by ascopyrone P solutions (prepared by dissolving ascopyrone P in dimethyl sulfoxide (DMSO)) of various concentrations and cultured for a predetermined time. Thereafter, cells were collected in a floating state by use of trypsin. Then, the cells were fixed by 70% ethanol at 4° C. for 30 minutes and then stained with a 50 μg/ml propidium iodine (PI) solution. […]
as §3

Assay [5] deals with HaCaT (human keratinocyte derived tumor-like cells). In words: Percentage of dead cells by PI staining/FACS; DNA fragmentation; FCS 10% vs FCS 1%. In kind it is cell-based. Particulars: 1.4 mM. Here is the method: as §1, §2, §3
It is known that although HaCaT cells have characteristics of tumor cells in the presence of 10% FCS, they have characteristics close to those of normal cells in the presence of low-concentration FCS (1% or lower). By taking advantage of this characteristic, the influence of ascopyrone P on normal cells was examined.

Assay [6] relates to B16 melanoma cells in C57 BL/6 mice. In words: Subcutaneous B16 melanoma tumor volume and metastasis. The format is in vivo, mouse. Particulars: 25 mg/kg subcutaneously into tumor spots every other day, 3rd to 13th day. Here is the method:
Next, B16 melanoma cells (1×10^5 cells) were subcutaneously disseminated in the backs of C57 BL/6 mice, PBS and ascopyrone P were subcutaneously injected into tumor spots (using a solution of ascopyrone P dissolved in PBS in a dosage of 25 mg/kg) every other day from the 3rd day to the 13th day, and the antitumor effects were evaluated based on the volumes (long diameter×short diameter^2×0.52) of the tumors (FIG. 10). […] In general, it is said in clinical practice that an antitumor medicine with a lower tumor growing rate provides better prognosis.

Assay [7] has as its system B16 melanoma cells. Description: Cell growth inhibition, number of living cells by crystal violet staining. In kind it is cell-based, mouse. Particulars: 0.70 mM final concentration, one week culture. Here is the method: After B16 melanoma cells having multiplied on a 6-well plate were fixed by 2% glutaraldehyde, they were stained with 4% crystal violet, and stainable cells were determined to be living cells.
5×10^3 cells/ml of B16 melanoma cells (C57 BL/6 mouse melanoma cells) were disseminated into a 6-well plate. After the cells were attached to the bottom face (24 hours), an ascopyrone P solution (using DMSO as a solvent) was added in equal amounts to achieve a final concentration of 0 to 0.70 mM in the culture solutions. After the cells were cultured at 37° C. and a CO2 concentration of 5% for one week, the number of living cells was counted.

Assay [8] has as its system B16 melanoma (C57 BL/6 mouse melanoma cells). Description: Percentage of dead cells by PI staining/FACS. In kind it is cell-based. Particulars: 1.4 mM, after 48 hours. Here is the method:
as §1, §4, §3

Assay [9] deals with THP-1 (promyelocytic leukemia cells). In words: Percentage of dead cells by PI staining/FACS. The format is cell-based, human. Here is the method: as §1, §4, §3

SMILES strings stand for the structures.

As for `O=C1CO[C@H](CO)[C@@H](O)[C@@H]1O` [1,5-D-anhydrofructose], the “average survival days after the tumor cells were disseminated” value in assay [1] (200 mg/kg into the abdominal cavity every day from the 2nd day, PBS controls 14 days) stood at 19 days. The “cell adhesion by phorbol ester (remaining)” value in assay [2] is recorded as “about 25%”.
With `O=C1CC(CO)OC=C1O` (stereo not drawn) [ascopyrone P, 2-hydroxymethyl-5-hydroxy-2,3-dihydro-4H-pyran-4-one], the “Percentage of Dead Cells (%)” value in assay [3] (after 48 hours) is reported as 8.3 ± 2.0%; in [4] (A549, 1.4 mM, after 48 hours), 48.6 ± 3.8%; in [5] (after 48 hours), 27.2 ± 3.1%; in assay [8] it was 31.9 ± 3.6%; in assay [9] (THP-1, 1.4 mM, after 48 hours), 33.3 ± 0.7%. Further, the “G2/M period cell population” value in assay [3] (FCS 10%, 24 hours) is listed as “significant decrease”. In assay [3] (FCS 10%, 24 hours), the S-period cell population entry is given as “significant increase”. The cell death entry in assay [3] (FCS 10%, 48 hours) is reported as “about 10%”; in [5] (FCS 1% (normal-cell-like)), “almost no cell death was observed”; in assay [5] (FCS 10% (tumor-like growth), within 48 hours) it was “about 30%”; in assay [9] (THP-1, 0.35 mM, within 48 hours), “induced cell death”. Moreover, the “apoptosis-specific DNA fragmentation” value is on record as “the same result was also obtained” in assay [4] (A549 cells) and “apoptosis-specific DNA fragmentation was observed” in assay [5] (48 hours, agarose gel electrophoresis). Besides, the “proportion of mice with 3 times or longer life time expansion than controls (PBS)” value in assay [1] (200 mg/kg into the abdominal cavity every day from the 15th day) came to 40%. Besides, the average survival days in [1] (200 mg/kg into the abdominal cavity every day from the 15th day, PBS controls 4 days) is 8 days. In addition, the “metastasis of tumors at dissection” value in assay [6] was “hardly observed”. Moreover, the “tumor volume versus PBS” value in assay [6] (from the 7th day and later) is “significantly smaller tumor volume”; in assay [6] (until the 7th day) it was “no difference”. The “number of living cells (control DMSO = 100%)” value in assay [7] was at most 50%.
